In patent publication US9675659B2 (Trilogy Therapeutics, Inc., priority 2015, dated 2017):
In brackets after ≈: the same amount, converted by molar mass. Read-outs that look alike come from different tables or passages of the source. Starred links: 1 amine or outer side, 2 acyl side, 3 side chain; linkers in the order of their positions; H or OH if unused. Positions of bridges follow the written chain, without caps; N, C: chain ends. Non-standard residues stand in square brackets, D forms with d. Residues, ends and D or L forms follow the SMILES beside them. *: point of attachment. hTyr(3S-OH,4S-OH,3'-OSO3H) = N[C@H](C(=O)O)[C@H](O)[C@@H](O)c1ccc(O)c(OS(=O)(=O)O)c1; pTerphenylCO(4''-OnC5H11) = CCCCCOc1ccc(-c2ccc(-c3ccc(C(=O)*)cc3)cc2)cc1; Orn(4R-OH,5R-OH) = O=C([C@H](C[C@@H](O)[C@@H](O)N[*:3])N[*:1])[*:2]; hTyr(3S-OH,4S-OH) = N[C@H](C(=O)O)[C@H](O)[C@@H](O)c1ccc(O)cc1; Pro(3S-OH,4S-Me) = C[C@H]1CN[C@H](C(=O)O)[C@H]1O; X1 = CCCCCOc1ccc(-c2cc(-c3ccc(C(=O)*)cc3)no2)cc1; Gln(3R-OH) = NC(=O)C[C@@H](O)[C@H](N)C(=O)O; Hyp = O=C(O)[C@@H]1C[C@@H](O)CN1

Columns and labels:
[1] = Toxicology observations in the rat inhalation/IV study (mortality, clinical signs, body weight, necropsy); assay type: in vivo; settings: male rats, nose-only inhalation or intravenous injection, 2 mg/kg
Description: A detailed, hand-held physical examination was conducted on all animals once during the quarantine period (prior to randomization). During the treatment period, the animals were observed daily for mortality or evidence of moribundity; these checks were separated by a minimum of four hours. Daily cage-side clinical observations were conducted during exposure, and daily hand-held clinical observations were conducted before and after exposure. Observations included, but were not limited to the following: changes in the skin and fur, eyes, and mucous membranes; effects on the respiratory, circulatory, autonomic and central nervous systems; and effects on somatomotor activity and behavior pattern.
Body Weights and Body Weight Changes: Body weights were determined one day after animal receipt; at randomization; and prior to exposure on Study Day 1, 2, 3 and 7 (as applicable based on scheduled euthanization).

[2] = rat, 2 mg/kg, cited from earlier work
Aspergillus fumigatus [3] = settings: 56 isolates; cited from earlier work
Aspergillus flavus [4] = settings: 13 isolates; cited from earlier work
Aspergillus nidulans [5] = settings: 13 isolates; cited from earlier work
Aspergillus niger [6] = settings: 10 isolates; cited from earlier work
Aspergillus terrus [7] = settings: 11 isolates; cited from earlier work
Aspergillus fumigatus [8] = settings: 1691 isolates; cited from earlier work
Aspergillus flavus [9] = settings: 432 isolates; cited from earlier work
Aspergillus nidulans [10] = settings: 192 isolates; cited from earlier work
Aspergillus niger [11] = settings: 440 isolates; cited from earlier work
Aspergillus terrus [12] = settings: 385 isolates; cited from earlier work
Aspergillus versicolor = settings: 75 isolates; cited from earlier work
Candida albicans = settings: 2869 isolates; cited from earlier work
Candida galbrata = settings: 747 isolates; cited from earlier work
Candida tropicalis = settings: 625 isolates; cited from earlier work
Candida krusei = settings: 136 isolates; cited from earlier work
Candida parapsilosis = settings: 759 isolates; cited from earlier work
Candida guilliermondii = settings: 61 isolates; cited from earlier work
in vivo = settings: Sprague-Dawley, rat
Description: Tissue specimens (lung, liver and kidney) were collected from three animals per time point at 0.5, 2, 24 and 48 hours and 7 days after dose administration. All tissue specimens were stored frozen at approximately −70° C. until analyzed.
In Vivo Details: Thirty Sprague-Dawley derived rats [Crl:CD®(CD)Br] were obtained from Charles River Laboratories, Inc., Wilmington, Mass., for use in this study. The rats were 52 days of age (approximately 7.5 weeks) upon arrival. One day following receipt, body weights of the rats ranged from 171 g to 213 g. The animals were held in quarantine for 7 days prior to administration of the test article. […] Before being released from quarantine, the animals were given a detailed, hand-held physical examination to ensure their health and suitability as test subjects. The test animals were approximately 8.5 weeks old at the start of the first exposure to the test article.
The resulting solution was aseptically filtered and kept refrigerated between 2-8° C. until used.
Test Article Dosing: The animals were randomized into two groups of 15 animals based on body weight.
Inhalation Exposure Methods:
All study animals surviving to scheduled necropsy were euthanized by an overdose of an intraperitoneal injection of sodium pentobarbital at 35-45 mg/kg. Tissue specimens (lung, liver and kidney) were collected from three animals per time point at 0.5, 2, 24 and 48 hours and 7 days after dose administration. All tissue specimens were stored frozen at approximately −70° C. until analyzed.
After shaking for five minutes, the sample was centrifuged at 4° C. for 10 minutes to remove precipitated proteins and supernatant was transferred to an autosampler tube, diluted with 0.5 mL of water, and vortex-mixed for instrumental analysis.
Subsequently, 100 μL of the supernatant was transferred to a 2 mL centrifuge tube and processed for analysis using the same procedure as for plasma.
Tissue results in ng were converted to g/g using the amount of tissue extracted and the final extract volume.

[13] = cited from earlier work
[14] = rat, intravenous; cited from earlier work

With `CC[C@H](C)C[C@H](C)CCCCCCCCC(=O)N[C@H]1C[C@@H](O)[C@@H](NCCN)NC(=O)[C@@H]2[C@@H](O)CCN2C(=O)[C@H]([C@H](O)CCN)NC(=O)[C@H]([C@H](O)[C@@H](O)c2ccc(O)cc2)NC(=O)[C@@H]2C[C@@H](O)CN2C(=O)[C@H]([C@@H](C)O)NC1=O` [Caspofungin, caspofungin] the “clinical signs of toxicity” value [1] was “no clinical signs of toxicity”, the “effects on body weight” value [1] was “no effects on body weight” and the gross necropsy findings [1] was “no gross necropsy findings attributable to exposure to the test article”. The test-article related mortality [1] was “no test-article related mortality”, the “Kidney concentration, Stone 2004 (radiolabeled compound)” value (shortened to “Kidney concentration”) ([2]; 0.5 h) was 9.15 µg/g and the “Liver concentration, Stone 2004 (radiolabeled compound)” value (from here on “Liver concentration”) ([2]; 0.5 h) was 5.03 µg/g. For the same molecule, the “Lung concentration, Stone 2004 (radiolabeled compound)” value (“Lung concentration” below) ([2]; 0.5 h) was 5.12 µg/g, the “Plasma concentration, Stone 2004 (radiolabeled compound)” value (from here on “Plasma concentration”) ([2]; 0.5 h) was 11000 ng/mL and the “Kidney concentration” value ([2]; 2 h) was 10.60 µg/g. For the same molecule, the “Liver concentration” value ([2]; 2 h) was 7.04 µg/g, the “Lung concentration” value ([2]; 2 h) was 4.50 µg/g and the “Plasma concentration” value ([2]; 2 h) was 6100 ng/mL. The “Kidney concentration” value ([2]; 24 h) was 11.40 µg/g, the “Liver concentration” value ([2]; 24 h) was 22.20 µg/g and the “Lung concentration” value ([2]; 24 h) was 2.44 µg/g. The “Plasma concentration” value ([2]; 24 h) was 1740 ng/mL, the “MIC90 Average (Geometric Mean MIC)” value (Aspergillus fumigatus [3]) was 0.25 µg/mL (≈ 0.229 µM) and the “MIC90 Range” value (Aspergillus fumigatus [3]) was 0.12 to 4 µg/mL. The “MIC90 Average (Geometric Mean MIC)” value (Aspergillus flavus [4]) was 0.2 µg/mL (≈ 0.183 µM), the “MIC90 Range” value (Aspergillus flavus [4]) was 0.06 to 2 µg/mL and the “MIC90 Average (Geometric Mean MIC)” value (Aspergillus nidulans [5]) was 0.44 µg/mL (≈ 0.402 µM). The “MIC90 Range” value (Aspergillus nidulans [5]) was 0.2 to 4 µg/mL, the “MIC90 Average (Geometric Mean MIC)” value (Aspergillus niger [6]) was 0.14 µg/mL (≈ 0.128 µM) and the “MIC90 Range” value (Aspergillus niger [6]) was 0.06 to 0.5 µg/mL. For the same molecule, the “MIC90 Average (Geometric Mean MIC)” value (Aspergillus terrus [7]) was 0.12 µg/mL (≈ 0.11 µM), the “MIC90 Range” value (Aspergillus terrus [7]) was 0.06 to .2 µg/mL and the “MEC Average (Mode, most frequent MEC)” value (Aspergillus fumigatus [8]) was 0.25 µg/mL. For the same molecule, the “MEC Range” value (Aspergillus fumigatus [8]) was 0.016 to 32 µg/mL, the “MEC Average (Mode, most frequent MEC)” value (Aspergillus flavus [9]) was 0.06 µg/mL and the “MEC Range” value (Aspergillus flavus [9]) was 0.016 to 32 µg/mL. The “MEC Average (Mode, most frequent MEC)” value (Aspergillus nidulans [10]) was 0.12 µg/mL, the “MEC Range” value (Aspergillus nidulans [10]) was 0.032 to 16 µg/mL and the “MEC Average (Mode, most frequent MEC)” value (Aspergillus niger [11]) was 0.06 µg/mL. The “MEC Range” value (Aspergillus niger [11]) was 0.016 to 2 µg/mL, the “MEC Average (Mode, most frequent MEC)” value (Aspergillus terrus [12]) was 0.06 µg/mL and the “MEC Range” value (Aspergillus terrus [12]) was 0.016 to 2 µg/mL. The “MEC Average (Mode, most frequent MEC)” value (Aspergillus versicolor) was 0.12 µg/mL, the “MEC Range” value (Aspergillus versicolor) was 0.032 to 2 µg/mL and the MIC90 (Candida albicans) was 0.06 µg/mL (≈ 0.0549 µM). For the same molecule, the MIC90 (Candida galbrata) was 0.12 µg/mL (≈ 0.11 µM), the MIC90 (Candida tropicalis) was 0.06 µg/mL (≈ 0.0549 µM) and the MIC90 (Candida krusei) was 0.06 µg/mL (≈ 0.0549 µM). For the same molecule, the MIC90 (Candida parapsilosis) was 2 µg/mL (≈ 1.83 µM), the MIC90 (Candida guilliermondii) was 2 µg/mL (≈ 1.83 µM) and the concentration at 0.5 h (in vivo; kidney, inhaled, 2 mg/kg) was 160 ng/g. The concentration at 2 h (in vivo; kidney, inhaled, 2 mg/kg) was 160 ng/g, the concentration at 24 h (in vivo; kidney, inhaled, 2 mg/kg) was 160 ng/g and the concentration at 48 h (in vivo; kidney, inhaled, 2 mg/kg) was 120 ng/g. It also gave a concentration at 168 h (in vivo; kidney, inhaled, 2 mg/kg) of 20 ng/g, a concentration at 0.5 h (in vivo; kidney, iv, 2 mg/kg) of 500 ng/g and a concentration at 2 h (in vivo; kidney, iv, 2 mg/kg) of 670 ng/g. For the same molecule, the concentration at 24 h (in vivo; kidney, iv, 2 mg/kg) was 500 ng/g, the concentration at 0.5 h (in vivo; liver, inhaled, 2 mg/kg) was 90 ng/g and the concentration at 2 h (in vivo; liver, inhaled, 2 mg/kg) was 130 ng/g. For the same molecule, the concentration at 24 h (in vivo; liver, inhaled, 2 mg/kg) was 300 ng/g, the concentration at 48 h (in vivo; liver, inhaled, 2 mg/kg) was 180 ng/g and the concentration at 168 h (in vivo; liver, inhaled, 2 mg/kg) was 20 ng/g. For the same molecule, the concentration at 0.5 h (in vivo; liver, iv, 2 mg/kg) was 250 ng/g, the concentration at 2 h (in vivo; liver, iv, 2 mg/kg) was 310 ng/g and the concentration at 24 h (in vivo; liver, iv, 2 mg/kg) was 660 ng/g. It also gave a concentration at 0 h (in vivo; lung, inhaled, 2 mg/kg) of 10800 ng/g, a concentration at 0.5 h (in vivo; lung, inhaled, 2 mg/kg) of 10800 ng/g and a concentration at 2 h (in vivo; lung, inhaled, 2 mg/kg) of 10400 ng/g. For the same molecule, the concentration at 24 h (in vivo; lung, inhaled, 2 mg/kg) was 5310 ng/g, the concentration at 39 h (in vivo; lung, inhaled, 2 mg/kg) was 5420 ng/g and the concentration at 48 h (in vivo; lung, inhaled, 2 mg/kg) was 3370 ng/g. The concentration at 78 h (in vivo; lung, inhaled, 2 mg/kg) was 2710 ng/g, the concentration at 117 h (in vivo; lung, inhaled, 2 mg/kg) was 1350 ng/g and the concentration at 156 h (in vivo; lung, inhaled, 2 mg/kg) was 680 ng/g. For the same molecule, the concentration at 168 h (in vivo; lung, inhaled, 2 mg/kg) was 390 ng/g, the concentration at 195 h (in vivo; lung, inhaled, 2 mg/kg) was 340 ng/g and the concentration at 273 h (in vivo; lung, inhaled, 2 mg/kg) was 80 ng/g. For the same molecule, the concentration at 312 h (in vivo; lung, inhaled, 2 mg/kg) was 40 ng/g, the concentration at 351 h (in vivo; lung, inhaled, 2 mg/kg) was 20 ng/g and the concentration at 0 h (in vivo; lung, inhaled, 7.2 mg/kg) was 39000 ng/g. For the same molecule, the concentration at 39 h (in vivo; lung, inhaled, 7.2 mg/kg) was 19500 ng/g, the concentration at 78 h (in vivo; lung, inhaled, 7.2 mg/kg) was 9750 ng/g and the concentration at 117 h (in vivo; lung, inhaled, 7.2 mg/kg) was 4880 ng/g. It also gave a concentration at 156 h (in vivo; lung, inhaled, 7.2 mg/kg) of 2440 ng/g, a concentration at 195 h (in vivo; lung, inhaled, 7.2 mg/kg) of 1220 ng/g and a concentration at 273 h (in vivo; lung, inhaled, 7.2 mg/kg) of 300 ng/g. For the same molecule, the concentration at 312 h (in vivo; lung, inhaled, 7.2 mg/kg) was 150 ng/g, the concentration at 351 h (in vivo; lung, inhaled, 7.2 mg/kg) was 80 ng/g and the concentration at 0.5 h (in vivo; lung, iv, 2 mg/kg) was 590 ng/g. For the same molecule, the concentration at 2 h (in vivo; lung, iv, 2 mg/kg) was 540 ng/g, the concentration at 24 h (in vivo; lung, iv, 2 mg/kg) was 180 ng/g and the concentration at 48 h (in vivo; lung, iv, 2 mg/kg) was 90 ng/g. For the same molecule, the concentration at 168 h (in vivo; lung, iv, 2 mg/kg) was 0 ng/g, the concentration at 0.5 h (in vivo; plasma, inhaled, 2 mg/kg) was 2030 ng/mL and the concentration at 24 h (in vivo; plasma, inhaled, 2 mg/kg) was 230 ng/mL. It also gave a concentration at 48 h (in vivo; plasma, inhaled, 2 mg/kg) of 80 ng/mL, a concentration at 168 h (in vivo; plasma, inhaled, 2 mg/kg) of 0 ng/mL and a concentration at 0.5 h (in vivo; plasma, iv, 2 mg/kg) of 11000 ng/mL. It also gave a concentration at 2 h (in vivo; plasma, iv, 2 mg/kg) of 7720 ng/mL and a concentration at 24 h (in vivo; plasma, iv, 2 mg/kg) of 800 ng/mL.

In the case of `CCCCCOc1ccc(-c2ccc(-c3ccc(C(=O)N[C@H]4C[C@@H](O)[C@@H](O)NC(=O)[C@@H]5[C@@H](O)[C@@H](C)CN5C(=O)[C@H]([C@@H](C)O)NC(=O)[C@H]([C@H](O)[C@@H](O)c5ccc(O)cc5)NC(=O)[C@@H]5C[C@@H](O)CN5C(=O)[C@H]([C@@H](C)O)NC4=O)cc3)cc2)cc1` [anidulafungin] ({pTerphenylCO(4''-OnC5H11)}-[Orn(4R-OH,5R-OH)]T[Hyp][hTyr(3S-OH,4S-OH)]T[Pro(3S-OH,4S-Me)]; lactam 1-C), the “time levels are maintained above MICs for common pathogens” value ([13]; rat tissues) is given as ≥ 72 h, the “exposure in tissues (liver, lung, spleen, kidney) relative to plasma” value ([13]; rat) is given as 9-12 fold and the “time to peak concentrations in tissues” value ([13]; rat) is given as ≤ 30 min.

In the case of `CCCCCOc1ccc(-c2cc(-c3ccc(C(=O)N[C@H]4C[C@@H](O)[C@@H](O)NC(=O)[C@@H]5[C@@H](O)[C@@H](C)CN5C(=O)[C@H]([C@H](O)CC(N)=O)NC(=O)[C@H]([C@H](O)[C@@H](O)c5ccc(O)c(OS(=O)(=O)O)c5)NC(=O)[C@@H]5C[C@@H](O)CN5C(=O)[C@H]([C@@H](C)O)NC4=O)cc3)no2)cc1` [micafungin] (X1-[Orn(4R-OH,5R-OH)]T[Hyp][hTyr(3S-OH,4S-OH,3'-OSO3H)][Gln(3R-OH)][Pro(3S-OH,4S-Me)]; lactam 1-C), the “exposure in kidney relative to plasma” value [14] is listed as 3.4 fold, the “exposure in liver relative to plasma” value [14] is listed as 1.6 fold and the “exposure in lung relative to plasma” value [14] is listed as 2.9 fold.
